The text below walks through data of patent publication US20260184675A1, “CHIRAL ISOMERIC SULFITE COMPOUND AND APPLICATION THEREOF” (Chengdu Hanova BioSciences Co., Ltd, priority 2024, published 2026).

This test relates to eggs of Tetranychus cinnabarinus. The test can be described thus: Control efficacy on eggs of Tetranychus cinnabarinus of compounds compounded with ginger rhizome / Kaempferia galanga L rhizome mixture (Bliss joint action). The class given is in vivo. The settings on record: for joint effect on controlling of eggs of Tetranychus cinnabarinus (in words): compounded with a mixture of ginger rhizome and Kaempferia galanga L rhizome (7:3); for Control efficacy for eggs of Tetranychus cinnabarinus on day 5 (%): single agent. The method, then:
The ginger rhizome extract and volatile oil of Kaempferia galanga L rhizome were used to prepare a mixture of ginger rhizome and Kaempferia galanga L rhizome at a compounding ratio of 7:3, which was then compounded with compound 1, compound 10 and compound 19, and a leaf-disc method was used to evaluate the control efficacy on eggs of Tetranychus cinnabarinus based on the Experimental method in Example 1.
The ginger rhizome extract was prepared by extracting the ginger rhizome using a mixed solvent of ethyl acetate and ethanol at a ratio of 1:4.
According to the concept of independent joint action proposed by Bliss, the theoretical mortality rate P when the pesticides and acaricides are used in mixture can be calculated using the following equation: […]
Pm is the mortality rate (%) of the target when the first active component is used at a concentration of m; and Pn is the mortality rate (%) of the target when the second active component is used at a concentration of n.

On to `CC(COS(=O)OCCF)Oc1ccc(Cl)cc1Cl` (stereo not drawn) [Compound 1], for which the “joint effect on controlling of eggs of Tetranychus cinnabarinus (in words)” value (“joint effect on controlling” below) is given as “synergistic effect”. In addition, the “Control efficacy for eggs of Tetranychus cinnabarinus on day 5 (%)” value (“Control efficacy for eggs … (%)” for short) (0.1 mg/L) came out at 17.12%. Moreover, the “Control efficacy for eggs … (%)” value (0.2 mg/L) worked out at 33.58%. Also, the “Control efficacy for eggs … (%)” value (0.3 mg/L) turned out to be 52.19%.
In the case of `CC(C)(COc1ccc(Cl)cc1Cl)OS(=O)OCCF` (stereo not drawn) [Compound 10], the “joint effect on controlling” value was “synergistic effect”. The “Control efficacy for eggs … (%)” value (0.1 mg/L) was found to be 11.45%. For the same compound, the “Control efficacy for eggs … (%)” value (0.2 mg/L) was 20.79%. The “Control efficacy for eggs … (%)” value (0.5 mg/L) is recorded as 68.12%.
As to `CCC(COc1ccc(Cl)cc1Cl)OS(=O)OCCF` (stereo not drawn) [Compound 19], the “joint effect on controlling” value is “synergistic effect”. The “Control efficacy for eggs … (%)” value (0.1 mg/L) is given as 20.57%. For the same compound, the “Control efficacy for eggs … (%)” value (0.2 mg/L) came out at 36.14%. Under “0.25 mg/L”, the “Control efficacy for eggs … (%)” value is given as 48.73%.
